US5688798A, “Pyrimidine compounds” (Hoffmann-La Roche Inc., priority 1995, dated 1997)

target: T1, dopamine D4 receptor (Homo sapiens, UniProt P21917); test: binding behaviour at the dopamine D4 receptor, [3H]-spiperone displacement in D4-CHO cell membranes; settings: not given
T1 construct: expressed in transfected cells; host or cells: CHO (Chinese Hamster Ovary) cells, D4-CHO, crude membranes
T1 sequence (P21917 1-419): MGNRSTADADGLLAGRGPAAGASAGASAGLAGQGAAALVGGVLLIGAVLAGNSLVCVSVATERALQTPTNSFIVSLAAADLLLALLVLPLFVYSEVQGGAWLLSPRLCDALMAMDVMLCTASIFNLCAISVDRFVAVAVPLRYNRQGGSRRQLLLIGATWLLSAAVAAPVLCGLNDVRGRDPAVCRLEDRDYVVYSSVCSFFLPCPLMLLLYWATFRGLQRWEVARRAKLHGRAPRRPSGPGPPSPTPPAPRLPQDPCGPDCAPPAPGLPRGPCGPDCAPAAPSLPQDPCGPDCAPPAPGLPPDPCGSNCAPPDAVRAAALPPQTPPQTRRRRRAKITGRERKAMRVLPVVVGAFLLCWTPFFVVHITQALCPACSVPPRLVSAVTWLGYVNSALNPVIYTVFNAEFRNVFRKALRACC
Method: The compounds were characterized by their binding behaviour at the D4 receptor.
CHO cells (Chinese Hamster Ovary) were used in the test. Crude membranes were isolated by ultracentrifugation from D4 -CHO and D2 -CHO cells and were stored at -80° C. After thawing and homogenizing in a buffer solution (50 mM Tris, 1 mM EDTA, 5 mM KCl, 1.5 mM CaCl2, 4 mM MgCl2, pH 7.4) they were incubated at room temperature for 90 minutes with 200 pM [3H]-spiperone and an increasing concentration (1×10^-11 M to 1×10^-4 M) of the test compound. A non-specific binding was established by incubating in the presence of 1×10^-5 M (+)-butaclamol. The unbound radioligand was removed by filtration through a GF/C glass filter and the bound radioactivity was determined by scintillation in a Packard TopCount.
It was determined using :^3 H-spiperone. The calculation of the value was effected with ligand.

Row | Structure (SMILES) | Ki [nM]
1 | Cc1ncc(CN2CC=C(c3ccccc3)CC2)c(N)n1 [Example 14, 5-(4-Phenyl-3,6-dihydro-2H-pyridin-1-ylmethyl)-2-methyl-pyrimidin-4-ylamine] | 8.3
2 | Cc1ncc(CN2CC=C(c3ccc(F)cc3)CC2)c(N)n1 [Example 15, 5-[4-(4-Fluoro-phenyl)-3,6-dihydro-2H-pyridin-1-ylmethyl]-2-methyl-pyrimidin-4-ylamine] | 9.3
3 | Cc1ncc(CN2CC=C(c3ccc(Cl)cc3)CC2)c(N)n1 [Example 16, 5-[4-(4-chloro-phenyl)-3,6-dihydro-2H-pyridin-1-ylmethyl]-2-methyl-pyrimidin-4-ylamine] | 4.7
4 | COc1ccc(C2=CCN(Cc3cnc(C)nc3N)CC2)cc1 [Example 17, 5-[4-(4-Methoxy-phenyl)-3,6-dihydro-2H-pyridin-1-ylmethyl]-2-methyl-pyrimidin-4-ylamine] | 5.4
5 | Cc1ncc(CN2CCC3=C(CCCC3)C2)c(N)n1 [Example 24, 5-(3,4,5,6,7,8-Hexahydro-1H-isoquinolin-2-ylmethyl)-2-methyl-pyrimidin-4-ylamine] | 7.8
6 | Nc1ncc(CN2CC=C(c3ccccc3)CC2)c(N)n1 [Example 42, 5-(4-Phenyl-3,6-dihydro-2H-pyridin-1-ylmethyl)-pyrimidine-2,4-diamine] | 14

same assay, conditions: [3H]-spiperone 200 pM; crude membranes of D4-CHO cells; room temperature, 90 minutes, pH 7.4; non-specific binding with 1×10^-5 M (+)-butaclamol; read-out: Affinity to dopamine D4 receptors, Ki

Row | Structure (SMILES) | Ki [nM]
7 | Cc1ncc(CN2CCN(c3ccc(Cl)cc3)CC2)c(N)n1 [Example 3, 5-[4-(4-Chloro-phenyl)-piperazin-1-ylmethyl]-2-methyl-pyrimidin-4-ylamine] | 33
8 | Cc1ncc(CN2CCN(c3cccc(Cl)c3)CC2)c(N)n1 [Example 7, 5-[4-(3-chloro-phenyl)-piperazin-1-ylmethyl]-2-methyl-pyrimidin-4-ylamine] | 28
9 | Cc1ncc(CN2CCc3cc(-c4ccccc4)ccc3C2)c(N)n1 [Example 19, 2-Methyl-5-(6-phenyl-3,4-dihydro-1H-isoquinolin-2-ylmethyl)-pyrimidin-4-ylamine] | 0.4
10 | Cc1ncc(CN2CCc3ccc(-c4ccccc4)cc3C2)c(N)n1 [Example 21, 2-Methyl-5-(7-phenyl-3,4-dihydro-1H-isoquinolin-2-ylmethyl)-pyrimidin-4-ylamine] | 6.2
11 | Cc1ncc(CN2CCc3ccc(OCc4ccccc4)cc3C2)c(N)n1 [Example 22, 5-(7-benzyloxy-3,4-dihydro-1H-isoquinolin-2-ylmethyl)-2-methyl-pyrimidin-4-ylamine] | 23
12 | Cc1ncc(CN2CC=C(CCc3ccccc3)CC2)c(N)n1 [Example 28, 2-Methyl-5-(4-phenethyl-3,6-dihydro-2H-pyridin-1-ylmethyl)-pyrimidin-4-ylamine] | 1.3
13 | Cc1ncc(CN2CC=C(/C=C/c3ccccc3)CC2)c(N)n1 [Example 29, (E)-2-Methyl-5-(4-styryl-3,6-dihydro-2H-pyridin-1-ylmethyl)-pyrimidin-4-ylamine] | 0.9
14 | CCCc1ncc(CN2CCN(c3ccccc3OC)CC2)c(N)n1 [Example 33, 5-[4-(2-Methoxy-phenyl)-piperazin-1-ylmethyl]-2-propyl-pyrimidin-4-ylamine] | 14
15 | COc1ccccc1N1CCN(Cc2cnc(N)nc2N)CC1 [Example 41, 5-[4-(2-Methoxy-phenyl)-piperazin-1-ylmethyl]-pyrimidine-2,4-diamine] | 30
